Molecular target: T1, KRAS G12C 1-169, his-tagged protein, GDP-loaded (Homo sapiens, UniProt P01116, G12C)
T1 construct: KRAS G12C 1-169, his-tagged protein, GDP-loaded
Assay: Biochemical assay: covalent modification of KRAS G12C measured by mass spectrometry (RapidFire/TOF or Q-Exactive)
Conditions: covalent binding to KRAS G12C
Procedure, shortened: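 Covalent adduct formation read by intact-mass spectrometry (TOF or Q Exactive Plus, charge envelopes deconvoluted into modified and unmodified species) after formic acid quench. Reactions contained 2 μM GDP-bound KRAS G12C 1-169 (his-tag) in Hepes/NaCl/MgCl2 buffer plus 10, 30 or 100 μM final compound, held 30 min, 2 h or 24 h at room temperature.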

For `C=CC(=O)N1CCN(c2ncnc3c(F)c(-c4cc(O)cc5ccccc45)c(Cl)cc23)[C@@H](C)C1` [III-30, 1-((3S)-4-(6-chloro-8-fluoro-7-(3-hydroxy-naphthalen-1-yl)quinazolin-4-yl)-3-methyl-piperazin-1-yl)prop-2-en-1-one], the Binding % (compounds of structure (III)) was “+++ (+++ indicates binding activity greater than 90%)”.

For `C=CC(=O)N1CCN(c2nc(OC3CCN(C(C)=O)CC3)nc3c(F)c(-c4c(O)cccc4F)c(Cl)cc23)CC1` [Example I-115, 1-(4-(2-(1-acetylpiperidin-4-yloxy)-6-chloro-8-fluoro-7-(2-fluoro-6-hydroxyphenyl)quinazolin-4-yl)piperazin-1-yl) prop-2-en-1-one], the Binding % (compounds of structure (I)) was “+++ (+++ indicates binding activity greater than 90%)”.

`C=CC(=O)N1CCN(c2ncnc3c(F)c(-c4c(O)cccc4F)c(Cl)cc23)CC1CO` (stereo not drawn) [III-8, 1-(4-(6-chloro-8-fluoro-7-(2-fluoro-6-hydroxy-phenyl)quinazolin-4-yl)-2-(hydroxy-methyl)piperazin-1-yl)prop-2-en-1-one] was tested, and the Binding % (compounds of structure (III)) was “++ (++ indicates activity from 50% to 90%)”.

`C=CC(=O)N1CCN(c2nc(NCC3CCN(C4CC4)CC3)nc3c(F)c(-c4c(O)cccc4F)c(Cl)cc23)CC1` [Example I-150, 1-(4-(6-chloro-2-((1-cyclopropyl-piperidin-4-yl)methylamino)-8-fluoro-7-(2-fluoro-6-hydroxyphenyl)quinazolin-4-yl)piperazin-1-yl) prop-2-en-1-one] was tested, and the Binding % (compounds of structure (I)) was “+++ (+++ indicates binding activity greater than 90%)”.

With `C=CC(=O)N1CCN(c2nc(OCCN3CCC(F)(F)C3)nc3c(F)c(-c4c(O)cccc4F)c(Cl)cc23)CC1` (atropisomer, axis not shown) [Example I-98, (R)-1-(4-(6-chloro-2-(2-(3,3-difluoro-pyrrolidin-1-yl)ethoxy)-8-fluoro-7-(2-fluoro-6-hydroxyphenyl)quinazolin-4-yl)piperazin-1-yl) prop-2-en-1-one] the Binding % (compounds of structure (I)) was “+ (+ indicates binding activity up to 50%)”.

For `C=CC(=O)N1CCN(c2nc(N3CC(COC)C3)nc3c(F)c(-c4c(C)ccc5[nH]ncc45)c(Cl)cc23)CC1` [Example I-152, 1-(4-(6-chloro-8-fluoro-2-(3-(methoxy-methyl)azetidin-1-yl)-7-(5-methyl-1H-indazol-4-yl)quinazolin-4-yl)piperazin-1-yl) prop-2-en-1-one], the Binding % (compounds of structure (I)) was “+++ (+++ indicates binding activity greater than 90%)”.

`C=CC(=O)N1CCN(c2nc(OCCC3CCN(C(C)C)CC3)nc3c(F)c(-c4c(O)cccc4F)c(Cl)cc23)CC1` [Example I-180, 1-(4-(6-chloro-8-fluoro-7-(2-fluoro-6-hydroxyphenyl)-2-(2-(1-isopropyl-piperidin-4-yl)ethoxy)quinazolin-4-yl)piperazin-1-yl) prop-2-en-1-one] was tested, and the Binding % (compounds of structure (I)) was “+++ (+++ indicates binding activity greater than 90%)”.

For `C=CC(=O)N1CCN(c2nc(NCC3CCN(C4CC4)CC3)nc3c(F)c(-c4c(C)ccc5[nH]ncc45)c(Cl)cc23)CC1` [Example I-160, 1-(4-(6-chloro-2-((1-cyclo-propyl-piperidin-4-yl)methylamino)-8-fluoro-7-(5-methyl-1H-indazol-4-yl)quinazolin-4-yl)piperazin-l-yl) prop-2-en-1-one], the Binding % (compounds of structure (I)) was “+++ (+++ indicates binding activity greater than 90%)”.

`C=CC(=O)N1CCN(c2nc(N3CC(N(C)C)C3)nc3c(F)c(-c4cc(O)cc5ccccc45)c(Cl)cc23)CC1` [Example I-106, 1-(4-(6-chloro-2-(3-(dimethyl-amino)azetidin-1-yl)-8-fluoro-7-(3-hydroxy-naphthalen-1-yl)quinazolin-4-yl)piperazin-1-yl) prop-2-en-1-one] was tested, and the Binding % (compounds of structure (I)) was “+++ (+++ indicates binding activity greater than 90%)”.

In the case of `C=CC(=O)N1CCN(c2nc(NC3CN(c4ncccn4)C3)nc3c(F)c(-c4c(C)ccc5[nH]ncc45)c(Cl)cc23)CC1` [Example I-187, 1-(4-(6-chloro-8-fluoro-7-(5-methyl-1H-indazol-4-yl)-2-((1-(pyrimidin-2-yl)azetidin-3-yl)amino)quinazolin-4-yl)piperazin-1-yl) prop-2-en-1-one], the Binding % (compounds of structure (I)) is reported as “+ (+ indicates binding activity up to 50%)”.

For `C=CC(=O)N1CCN(c2nc(OC3CN(C(C)C)C3)nc3c(F)c(-c4c(O)cccc4F)c(Cl)cc23)CC1` [Example I-178, 1-(4-(6-chloro-8-fluoro-7-(2-fluoro-6-hydroxyphenyl)-2-((1-isopropyl-azetidin-3-yl)oxy)quinazolin-4-yl)piperazin-1-yl)prop-2-en-1-one], the Binding % (compounds of structure (I)) was “++ (++ indicates binding activity from 50 to 90%)”.

`C=CC(=O)N1C[C@@H](C)N(c2ncnc3c(F)c(-c4c(O)cccc4F)c(Cl)cc23)[C@@H](C)C1` [III-28, 1-((3R,5S)-4-(6-chloro-8-fluoro-7-(2-fluoro-6-hydroxy-phenyl)quinazolin-4-yl)-3,5-dimethyl-piperazin-1-yl)prop-2-en-1-one] was tested, and the Binding % (compounds of structure (III)) was “+++ (+++ indicates binding activity greater than 90%)”.

For `C=CC(=O)N1CCN(c2nc(OCCN3CC(F)(F)C3)nc3c(F)c(-c4c(C)ccc5[nH]ncc45)c(Cl)cc23)CC1` [Example I-145, 1-(4-(6-chloro-2-(2-(3,3-difluoro-azetidin-1-yl)ethoxy)-8-fluoro-7-(5-methyl-1H-indazol-4-yl)quinazolin-4-yl)piperazin-1-yl) prop-2-en-1-one], the Binding % (compounds of structure (I)) was “+++ (+++ indicates binding activity greater than 90%)”.

`C=CC(=O)N1CCN(c2ncnc3c(F)c(-c4c(F)cccc4OCc4cnc([N+](=O)[O-])n4C)c(Cl)cc23)CC1` [II-10, 1-(4-(6-chloro-8-fluoro-7-(2-fluoro-6-((1-methyl-2-nitro-1H-imidazol-5-yl)methoxy)phenyl)quinazolin-4-yl)piperazin-1-yl)prop-2-en-1-one] was tested, and the Binding % (compounds of structure (II)) was “+++ (+++ indicates binding activity of 75% or greater)”.

`C=CC(=O)N1CCN(c2nc(N3CC4(CCOC4)C3)nc3c(F)c(-c4c(O)cccc4F)c(Cl)cc23)CC1` [Example I-155, 1-(4-(6-chloro-8-fluoro-7-(2-fluoro-6-hydroxyphenyl)-2-(6-oxa-2-azaspiro[3,4]octan-2-yl)quinazolin-4-yl)piperazin-1-yl) prop-2-en-1-one] was tested, and the Binding % (compounds of structure (I)) was “+++ (+++ indicates binding activity greater than 90%)”.

With `C=CC(=O)N1CCN(c2nc(OCCN3CCS(=O)(=O)CC3)nc3c(F)c(-c4c(O)cccc4F)c(Cl)cc23)CC1` [Example I-67, 1-(4-(6-chloro-8-fluoro-7-(2-fluoro-6-hydroxyphenyl)-2-(2-dioxothio-morpholino-ethoxy)quinazolin-4-yl)piperazin-1-yl)prop-2-en-1-one] the Binding % (compounds of structure (I)) was “+++ (+++ indicates binding activity greater than 90%)”.

With `C=CC(=O)N1CCN(c2nc(C(=O)N3CCN(C)CC3)nc3c(F)c(-c4c(O)cccc4F)c(Cl)cc23)CC1` [Example I-90, 1-(4-(6-chloro-8-fluoro-7-(2-fluoro-6-hydroxyphenyl)-2-(4-methyl-piperazine-1-carbonyl)quinazolin-4-yl)piperazin-1-yl)prop-2-en-1-one] the Binding % (compounds of structure (I)) was “+++ (+++ indicates binding activity greater than 90%)”.

`C=CC(=O)N1CCN(c2nc(OCC(F)(F)c3ccccn3)nc3c(F)c(-c4c(C)ccc5[nH]ncc45)c(Cl)cc23)CC1` [Example I-123, 1-(4-(6-chloro-2-(2,2-difluoro-2-(pyridin-2-yl)ethoxy)-8-fluoro-7-(5-methyl-1H-indazol-4-yl)quinazolin-4-yl)piperazin-1-yl) prop-2-en-1-one] was tested, and the Binding % (compounds of structure (I)) was “+++ (+++ indicates binding activity greater than 90%)”.

For `C=CC(=O)N1CCN(c2nc(OCCN3CC(F)(F)C3)nc3c(F)c(-c4c(O)cccc4F)c(Cl)cc23)CC1` (atropisomer, axis not shown) [Example I-125, (S)-1-(4-(6-chloro-2-(2-(3,3-difluoro-azetidin-1-yl)ethoxy)-8-fluoro-7-(2-fluoro-6-hydroxyphenyl)quinazolin-4-yl)piperazin-1-yl) prop-2-en-1-one], the Binding % (compounds of structure (I)) was “+++ (+++ indicates binding activity greater than 90%)”.

For `C=CC(=O)N1CCN(c2ncnc3c(F)c(-c4c(C)ccc5cn[nH]c45)c(Cl)cc23)[C@@H](C)C1` [III-3, 1-((3S)-4-(6-chloro-8-fluoro-7-(6-methyl-1H-indazol-7-yl)quinazolin-4-yl)-3-methyl-piperazin-1-yl)prop-2-en-1-one], the Binding % (compounds of structure (III)) was “++ (++ indicates activity from 50% to 90%)”.

For `C=CC(=O)N1CCN(c2nc(OCC(F)(F)c3ccccn3)nc3c(F)c(-c4c(O)cccc4F)c(Cl)cc23)CC1` [Example I-124, 1-(4-(6-chloro-2-(2,2-difluoro-2-(pyridin-2-yl)ethoxy)-8-fluoro-7-(2-fluoro-6-hydroxyphenyl)quinazolin-4-yl)piperazin-1-yl) prop-2-en-1-one], the Binding % (compounds of structure (I)) was “+++ (+++ indicates binding activity greater than 90%)”.

With `C=CC(=O)N1CCN(c2nc(NC3CCN(CC(F)(F)F)CC3)nc3c(F)c(-c4c(O)cccc4F)c(Cl)cc23)CC1` [Example I-21, 1-(4-(6-chloro-8-fluoro-7-(2-fluoro-6-hydroxyphenyl)-2-(1-(2,2,2-trifluoroethyl)piperidin-4-ylamino)quinazolin-4-yl)piperazin-1-yl)prop-2-en-1-one] the Binding % (compounds of structure (I)) was “+ (+ indicates binding activity up to 50%)”.

`C=CC(=O)N1CCN(c2nc(N3CC(N4CCOCC4)C3)nc3c(F)c(-c4c(O)cccc4F)c(Cl)cc23)CC1` [Example I-24, 1-(4-(6-chloro-8-fluoro-7-(2-fluoro-6-hydroxyphenyl)-2-(3-morpholino-azetidin-1-yl)quinazolin-4-yl)piperazin-1-yl)prop-2-en-1-one] was tested, and the Binding % (compounds of structure (I)) was “+++ (+++ indicates binding activity greater than 90%)”.

With `C=CC(=O)N1CCN(c2nc(OCCN3CCC(F)(F)C3)nc3c(F)c(-c4c(C)ccc5[nH]ncc45)c(Cl)cc23)CC1` [Example I-146, 1-(4-(6-chloro-2-(2-(3,3-difluoro-pyrrolidin-1-yl)ethoxy)-8-fluoro-7-(5-methyl-1H-indazol-4-yl)quinazolin-4-yl)piperazin-1-yl) prop-2-en-1-one] the Binding % (compounds of structure (I)) was “+++ (+++ indicates binding activity greater than 90%)”.
